Data as given in the supplement of paper PMC11061612.

Columns and labels:
[1] = tested on: TC-YIK (Other Solid Carcinomas); experiment: Bliss excess, mean over the matrix (fraction); higher = more synergy
Method in brief: (§1)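 Cell lines grown in DMEM/F12 or RPMI with 10% FBS were plated in 1536-well plates and held 24 hours at 37°C, 5% CO2 before 72 hours of exposure to two-drug dose matrices, with DMSO typically at 0.2%. CellTiter-Glo 2.0 luminescence gave viability, which was converted to inhibition. Vehicle wells were set to 0 and blank wells to 1. Combination Emax is the second-highest inhibition in the matrix, and Bliss excess is the observed combination effect minus the expected EA + EB − EA·EB, where EA and EB are the single-agent effects.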

[2] = tested on: FU-OV-1 (Ovarian Carcinoma); experiment: as above
Method in brief: as §1

[3] = tested on: D-392MG (Glioblastoma); experiment: combination Emax (second highest fraction inhibited in the dose matrix, 72 h); higher = more inhibition; extreme values may be limits of the assay
Method in brief: as §1

[4] = tested on: TC-YIK (Other Solid Carcinomas); experiment: as above
Method in brief: as §1

[5] = tested on: KG-1 (Acute Myeloid Leukemia); experiment: as above
Method in brief: as §1

[6] = tested on: HCC1143 (Breast Carcinoma); experiment: as above
Method in brief: as §1

[7] = tested on: SNU-61 (Colorectal Carcinoma); experiment: as above
Method in brief: as §1

[8] = tested on: MEG-01 (Chronic Myelogenous Leukemia); experiment: as above
Method in brief: as §1

[9] = tested on: A172 (Glioblastoma); experiment: as above
Method in brief: as §1

[10] = tested on: HOP-92 (Non-Small Cell Lung Carcinoma); experiment: as above
Method in brief: as §1

[11] = tested on: CS1 (Chondrosarcoma); experiment: as above
Method in brief: as §1

[12] = tested on: JHH-6 (Hepatocellular Carcinoma); experiment: as above
Method in brief: as §1

[13] = tested on: FU-OV-1 (Ovarian Carcinoma); experiment: as above
Method in brief: as §1

[14] = tested on: U-118-MG (Low Grade Glioma); experiment: as above
Method in brief: as §1

[15] = tested on: PA-TU-8902 (Pancreatic Carcinoma); experiment: as above
Method in brief: as §1

[16] = tested on: GDM-1 (Acute Myeloid Leukemia); experiment: as above
Method in brief: as §1
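For Bliss excess, mean over the matrix in this document: after 72 h of two-drug dosing.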

COc1nnc2ccc(N3CCC(c4ccc(OCCN5CCN(C)C(=O)[C@H]5C)cc4)CC3)nn12 [AZD5153] + CC1(C)CCC(CN2CCN(c3ccc(C(=O)NS(=O)(=O)c4ccc(NCC5CCOCC5)c([N+](=O)[O-])c4)c(Oc4cnc5[nH]ccc5c4)c3)CC2)=C(c2ccc(Cl)cc2)C1 [Venetoclax] (first compound max 1 µM, 7x7, partner max 1 µM)
Bliss excess [1]: -0.0716 | Bliss excess [2]: -0.0369 | combination Emax [3]: 0.45 | combination Emax [4]: 0.862 | combination Emax [5]: 1 | combination Emax [6]: 0.357 | combination Emax [7]: 0.389 | combination Emax [8]: 0.889 | combination Emax [9]: 0.479 | combination Emax [10]: 0.362 | combination Emax [11]: 0.408 | combination Emax [12]: 0.463 | combination Emax [13]: 0.631 | combination Emax [14]: 0.367 | combination Emax [15]: 0.275 | combination Emax [16]: 1

COc1cc2ncnc(Nc3ccc(F)c(Cl)c3)c2cc1OCCCN1CCOCC1 [Gefitinib] + CC(C)n1c(=O)n(C)c2cnc3cc(F)c(-c4ccc(OCCCN5CCCCC5)nc4)cc3c21 [AZD1390] (first compound max 10 µM, 7x7, partner max 0.3 µM)
Bliss excess [1]: -0.046 | Bliss excess [2]: -0.0717 | combination Emax [3]: 0.084 | combination Emax [4]: 0.188 | combination Emax [5]: 0.182 | combination Emax [6]: 0.253 | combination Emax [7]: 0.18 | combination Emax [8]: 0.11 | combination Emax [9]: 0.169 | combination Emax [10]: 0.229 | combination Emax [11]: 0.201 | combination Emax [12]: 0.144 | combination Emax [13]: 0.296 | combination Emax [14]: 0.0987 | combination Emax [15]: 0.14 | combination Emax [16]: 0.131

COc1nnc2ccc(N3CCC(c4ccc(OCCN5CCN(C)C(=O)[C@H]5C)cc4)CC3)nn12 [AZD5153] + Cc1c2c(nn1C)CSCc1cc(n(C)n1)CSc1cc(c3ccccc3c1)OCCCc1c(C(=O)O)n(C)c3c-2c(Cl)ccc13 [AZD5991] (first compound max 1 µM, 7x7, partner max 1 µM)
Bliss excess [1]: -0.0146 | Bliss excess [2]: 0.0022 | combination Emax [3]: 0.541 | combination Emax [4]: 0.98 | combination Emax [5]: 1 | combination Emax [6]: 0.565 | combination Emax [7]: 0.452 | combination Emax [8]: 0.961 | combination Emax [9]: 0.485 | combination Emax [10]: 0.386 | combination Emax [11]: 0.38 | combination Emax [12]: 0.436 | combination Emax [13]: 0.835 | combination Emax [14]: 0.352 | combination Emax [15]: 0.345 | combination Emax [16]: 1

CN(C)CCCOc1ccc(-c2ccc3ncc4c(c3c2)n(C2CCOCC2)c(=O)n4C)cn1 [AZD0156] + O=C(c1cc(Cc2n[nH]c(=O)c3ccccc23)ccc1F)N1CCN(C(=O)C2CC2)CC1 [Olaparib] (first compound max 3 µM, partner max 3 µM)
Bliss excess [1]: 0.102 | Bliss excess [2]: -0.0526 | combination Emax [3]: 0.131 | combination Emax [4]: 0.379 | combination Emax [5]: 0.336 | combination Emax [6]: 0.203 | combination Emax [8]: 0.156 | combination Emax [9]: 0.323 | combination Emax [10]: 0.256 | combination Emax [11]: 0.296 | combination Emax [12]: 0.141 | combination Emax [13]: 0.211 | combination Emax [14]: 0.304 | combination Emax [15]: 0.239 | combination Emax [16]: 0.533

Cc1nc(-c2cn3c(n2)-c2ccc(-c4cnn(C(C)(C)C(N)=O)c4)cc2OCC3)n(C(C)C)n1 [Taselisib] + O=C(Nc1ccc2[nH]nc(-c3ccncc3)c2c1)[C@@H]1CCN(CC(=O)N2CCN(c3ccc(-c4ncccn4)cc3)CC2)C1 [SCH772984] (first compound max 10 µM, 7x7, partner max 5 µM)
Bliss excess [1]: 0.0859 | Bliss excess [2]: -0.0373 | combination Emax [3]: 0.799 | combination Emax [4]: 0.661 | combination Emax [8]: 0.954 | combination Emax [11]: 0.744 | combination Emax [13]: 0.727

C=CCn1c(=O)c2cnc(Nc3ccc(N4CCN(C)CC4)cc3)nc2n1-c1cccc(C(C)(C)O)n1 [AZD1775] + C1CN(CCC1(C(=O)N[C@@H](CCO)C2=CC=C(C=C2)Cl)N)C3=NC=NC4=C3C=CN4 [Capivasertib] (first compound max 3 µM, partner max 3 µM)
Bliss excess [1]: -0.0543 | Bliss excess [2]: -0.0615 | combination Emax [3]: 0.42 | combination Emax [4]: 0.895 | combination Emax [5]: 0.852 | combination Emax [6]: 0.771 | combination Emax [8]: 0.965 | combination Emax [9]: 0.623 | combination Emax [10]: 0.551 | combination Emax [11]: 0.63 | combination Emax [12]: 0.508 | combination Emax [13]: 0.565 | combination Emax [14]: 0.577 | combination Emax [15]: 0.527 | combination Emax [16]: 0.824

Cc1nc(Nc2ncc(C(=O)Nc3c(C)cccc3Cl)s2)cc(N2CCN(CCO)CC2)n1 [Dasatinib] + CC(=O)Nc1cccc(-n2c(=O)n(C3CC3)c(=O)c3c(Nc4ccc(I)cc4F)n(C)c(=O)c(C)c32)c1 [Trametinib] (first compound max 2 µM, 7x7, partner max 1 µM)
Bliss excess [1]: 0.0746 | combination Emax [3]: 0.627 | combination Emax [4]: 0.638 | combination Emax [5]: 0.419 | combination Emax [6]: 0.657 | combination Emax [7]: 0.626 | combination Emax [8]: 1 | combination Emax [9]: 0.512 | combination Emax [10]: 0.928 | combination Emax [11]: 0.568 | combination Emax [12]: 0.611 | combination Emax [14]: 0.557 | combination Emax [15]: 0.589 | combination Emax [16]: 0.76

CS(=O)(=O)CCNCc1ccc(-c2ccc3ncnc(Nc4ccc(OCc5cccc(F)c5)c(Cl)c4)c3c2)o1 [Lapatinib] + NC1(c2ccc(-c3nc4ccn5c(=O)[nH]nc5c4cc3-c3ccccc3)cc2)CCC1 [MK-2206] (first compound max 10 µM, 7x7, partner max 10 µM)
Bliss excess [1]: -0.014 | Bliss excess [2]: 0.0239 | combination Emax [3]: 0.189 | combination Emax [4]: 0.944 | combination Emax [6]: 0.89 | combination Emax [8]: 0.904 | combination Emax [10]: 0.685 | combination Emax [11]: 0.765 | combination Emax [13]: 0.751 | combination Emax [15]: 0.72
